# Laboratory results published in US11498920B2, “4-(1H-imidazol-5-yl)-1H-pyrrolo[2, 3-b] pyridines for use in the treatment of leukaemias, lymphomas and solid tumors” (MASARYKOVA UNIVERZITA, priority 2018, dated 2022).
# Columns and labels:
# primary CLL cells [1] = experiment: Cytotoxicity, TMRE flow cytometry viability, primary CLL cells (Example II.1); assay type: cell-based; conditions: Homo sapiens, CLL cell, 6 hours, TMRE positive cells normalized to control, ratio to PF670462, <1 = higher cytotoxicity than PF670462, read-out: Viability of cells, Compound of formula I (100 μM), relative to PF670462 (100 μM), CLL primary cells
# [2] = system: Maver-1 cells (mantle cell lymphoma); experiment: Cytotoxicity, TMRE flow cytometry viability, Maver-1 cells (Example II.1); assay type: cell-based; conditions: Homo sapiens, Maver1, 24 hours, TMRE positive cells normalized to control, ratio to PF670462, <1 = higher cytotoxicity than PF670462, read-out: Viability of cells, Compound of formula I (100 μM), relative to PF670462 (100 μM), Maver-1 cells (mantle cell lymphoma)
# A375 = experiment: Cytotoxicity on panel of cell lines, TMRE viability (Example II.2); assay type: cell-based; conditions: Homo sapiens, A-375, 24 hours, mean, control = 1, read-out: cell viability relative to control, A375 (melanoma)
# Experimental: (§1) The leukemia and lymphoma-derived cell lines [MEC-1 cell line (derived from chronic lymphocytic leukemia—CLL), Nalm-16 (acute lymphocytic leukemia—ALL), K562 (chronic myeloid leukemia—CML), HL-60 (acute myeloid leukemia—AML), Maver-1 and Mino (mantle cell lymphoma—MCL), BL-41 (Burkitt lymphoma—BL), WSU-NHL (follicular lymphoma—FL), SUDHL (diffuse large B-cell lymphoma—DLBCL)], primary CLL cells and nonmalignant control primary cells were cultured in suspension in flasks under the following conditions: RPMI 1640 medium (Hyclone) supplemented with 10% fetal bovine serum (FBS, Gibco) and 1% penicillin/streptomycin (Life Technologies), 37° C., 5% CO2 and 95% relative humidity, with optimal culture cell density 5×10^6 cells/mL in case of primary cells and 0.5-1×10^6 cells/mL in case of cell lines. The adherent cell lines [A375 (derived from malignant melanoma), MDA-MB-231 and MCF-7 (breast cancer), MIA-PA-CA and PANC1 (pancreatic cancer), PC3 (prostate cancer), OVCAR4 (ovarian cancer) and HEPG2 (hepatocellular carcinoma)] were cultured on plates under the same conditions using RPMI1640 or DMEM medium (Gibco) according to instructions provided by the distributor (DSMZ/ATCC).
# (§2) The tested cell lines were incubated with inhibitors at 30 μM concentration or corresponding amount of solvent (DMSO, Sigma Aldrich) in standard culture conditions, seeded as 10^5 cells/500 μl per well in a 24-well plate. Experiments were performed in technical duplicates and 2-3 biological repetitions per cell line. Viability of cells was assessed after 24 hours.
# (§3) Relative values are presented as a mean value, showing ratio to the effect of control. Relative value <1=lower viability than control condition.
# BL-41 = experiment: as above; assay type: cell-based; conditions: Homo sapiens, 24 hours, mean, control = 1, read-out: cell viability relative to control, BL-41 (BL)
# Experimental: as §1, §2, §3
# HEPG2 = experiment: as above; assay type: cell-based; conditions: Homo sapiens, 24 hours, mean, control = 1, read-out: cell viability relative to control, HEPG2 (hepatocellular carcinoma)
# Experimental: as §1, §2, §3
# HL60 = experiment: as above; assay type: cell-based; conditions: Homo sapiens, HL-60, 24 hours, mean, control = 1, read-out: cell viability relative to control, HL60 (AML)
# Experimental: as §1, §2, §3
# K562 = experiment: as above; assay type: cell-based; conditions: Homo sapiens, 24 hours, mean, control = 1, read-out: cell viability relative to control, K562 (CML)
# Experimental: as §1, §2, §3
# MCF-7 = experiment: as above; assay type: cell-based; conditions: Homo sapiens, MCF7, 24 hours, mean, control = 1, read-out: cell viability relative to control, MCF-7 (breast cancer)
# Experimental: as §1, §2, §3
# MDA-MB-231 = experiment: as above; assay type: cell-based; conditions: Homo sapiens, 24 hours, mean, control = 1, read-out: cell viability relative to control, MDA-MB-231 (breast cancer)
# Experimental: as §1, §2, §3
# MEC-1 = experiment: as above; assay type: cell-based; conditions: Homo sapiens, MEC1, 24 hours, mean, control = 1, read-out: cell viability relative to control, MEC-1 (CLL)
# Experimental: as §1, §2, §3
# MIA-PA-CA = experiment: as above; assay type: cell-based; conditions: Homo sapiens, MIA PaCa-2, 24 hours, mean, control = 1, read-out: cell viability relative to control, MIA-PA-CA (pancreatic cancer)
# Experimental: as §1, §2, §3
# Maver1 = experiment: as above; assay type: cell-based; conditions: Homo sapiens, 24 hours, mean, control = 1, read-out: cell viability relative to control, Maver1 (MCL)
# Experimental: as §1, §2, §3
# Mino = experiment: as above; assay type: cell-based; conditions: Homo sapiens, 24 hours, mean, control = 1, read-out: cell viability relative to control, Mino (MCL)
# Experimental: as §1, §2, §3
# Nalm16 = experiment: as above; assay type: cell-based; conditions: 24 hours, mean, control = 1, read-out: cell viability relative to control, Nalm16 (ALL)
# Experimental: as §1, §2, §3
# OVCAR4 = experiment: as above; assay type: cell-based; conditions: Homo sapiens, OVCAR-4, 24 hours, mean, control = 1, read-out: cell viability relative to control, OVCAR4 (ovarian cancer)
# Experimental: as §1, §2, §3
# PANC1 = experiment: as above; assay type: cell-based; conditions: Homo sapiens, PANC-1, 24 hours, mean, control = 1, read-out: cell viability relative to control, PANC1 (pancreatic cancer)
# Experimental: as §1, §2, §3
# PC3 = experiment: as above; assay type: cell-based; conditions: Homo sapiens, PC-3, 24 hours, mean, control = 1, read-out: cell viability relative to control, PC3 (prostate cancer)
# Experimental: as §1, §2, §3
# SUDHL = experiment: as above; assay type: cell-based; conditions: 24 hours, mean, control = 1, read-out: cell viability relative to control, SUDHL (DLBCL)
# Experimental: as §1, §2, §3
# WSU-NHL = experiment: as above; assay type: cell-based; conditions: Homo sapiens, 24 hours, mean, control = 1, read-out: cell viability relative to control, WSU-NHL (FL)
# Experimental: as §1, §2, §3
# primary CLL = experiment: as above; assay type: cell-based; conditions: Homo sapiens, 24 hours, mean, control = 1, read-out: cell viability relative to control, primary CLL
# Experimental: as §1, §2, §3
# [3] = Specificity of cytotoxic activity, TMRE viability, primary nonmalignant control cells (Example II.4); assay type: cell-based; conditions: human, N = 4, read-out: Viability - mean % of control, Primary healthy cells
# primary CLL cells [4] = conditions: human, 6 h, 30 µM
# primary CLL cells [5] = experiment: Specificity of cytotoxic activity, TMRE viability, primary CLL cells (Example II.4)
compound,measurement,setting,value
"Nc1nccc(-c2c(-c3ccc(F)cc3)ncn2C2CCCCC2)n1 [PF670462, reference compound]",viability at 100 µM,primary CLL cells [1],100%
same,viability at 100 µM,[2],100%
same,viability at 30 µM,A375,94%
same,viability at 30 µM,BL-41,82%
same,viability at 30 µM,HEPG2,78%
same,viability at 30 µM,HL60,98%
same,viability at 30 µM,K562,97%
same,viability at 30 µM,MCF-7,55%
same,viability at 30 µM,MDA-MB-231,99%
same,viability at 30 µM,MEC-1,92%
same,viability at 30 µM,MIA-PA-CA,104%
same,viability at 30 µM,Maver1,85%
same,viability at 30 µM,Mino,84%
same,viability at 30 µM,Nalm16,94%
same,viability at 30 µM,OVCAR4,95%
same,viability at 30 µM,PANC1,93%
same,viability at 30 µM,PC3,115%
same,viability at 30 µM,SUDHL,93%
same,viability at 30 µM,WSU-NHL,110%
same,viability at 30 µM,primary CLL,103%
same,"viability at 6 h, 30 µM",[3],95.5%
same,"Viability - mean % of control, Primary CLL",primary CLL cells [4],98.3% (N = 8)
same,induction of apoptosis in primary CLL cells or nonmalignant control (healthy) cells,"primary CLL cells [5]; 30 μM, 6 hours",not able to induce apoptosis
same,dose-dependent cytotoxic effect / apoptosis of primary CLL cells (FIG. 1),"primary CLL cells [5]; 6 h, indicated doses of inhibitors",lacks this effect
